According to ChEMBL document CHEMBL1143809, “New bis-N9-(methylphenylmethyl)purine derivatives: synthesis and antitumor activity” (2007):

Tests used:
Type in all cases: functional
M14 = experiment: Growth inhibition of human M14 cells after 48 hrs by SRB protein assay; settings: M14, 48 h
SK-MEL-5 = experiment: Growth inhibition of human SK-MEL-5 cells after 48 hrs by SRB protein assay; settings: SK-MEL-5, 48 h
UACC-62 = experiment: Growth inhibition of human UACC62 cells after 48 hrs by SRB protein assay; settings: UACC-62, 48 h
CCRF-CEM = experiment: Growth inhibition of human CCRF-CEM cells after 48 hrs by SRB protein assay
K562 = experiment: Growth inhibition of human K562 cells after 48 hrs by SRB protein assay; settings: K562, 48 h
MOLT-4 = experiment: Growth inhibition of human MOLT4 cells after 48 hrs by SRB protein assay; settings: MOLT-4, 48 h
RPMI-8226 = experiment: Growth inhibition of human RPMI8226 cells after 48 hrs by SRB protein assay; settings: RPMI-8226, 48 h
A549 = experiment: Growth inhibition of human A549 cells after 48 hrs by SRB protein assay; settings: A549, 48 h
[1] = Growth inhibition of human NCL-H226 cells after 48 hrs by SRB protein assay; settings: NCL-H226, 48 h
HOP-62 = experiment: Growth inhibition of human HOP62 cells after 48 hrs by SRB protein assay; settings: HOP-62, 48 h
[2] = Growth inhibition of human NCL-H23 cells after 48 hrs by SRB protein assay; settings: NCL-H23, 48 h
NCI-H460 = experiment: Growth inhibition of human NCL-H460 cells after 48 hrs by SRB protein assay; settings: NCI-H460, 48 h
[3] = Growth inhibition of human NCL-H522 cells after 48 hrs by SRB protein assay; settings: NCL-H522, 48 h
COLO 205 = experiment: Growth inhibition of human COLO205 cells after 48 hrs by SRB protein assay; settings: COLO 205, 48 h
HCC 2998 = experiment: Growth inhibition of human HCC2998 cells after 48 hrs by SRB protein assay; settings: HCC 2998, 48 h
HCT-15 = experiment: Growth inhibition of human HCT15 cells after 48 hrs by SRB protein assay; settings: HCT-15, 48 h
SF-268 = experiment: Growth inhibition of human SF268 cells after 48 hrs by SRB protein assay; settings: SF-268, 48 h
SNB-19 = experiment: Growth inhibition of human SNB19 cells after 48 hrs by SRB protein assay; settings: SNB-19, 48 h
[4] = Growth inhibition of human LOX MIVI cells after 48 hrs by SRB protein assay
A498 = experiment: Growth inhibition of human A498 cells after 48 hrs by SRB protein assay; settings: A498, 48 h
ACHN = experiment: Growth inhibition of human ACHN cells after 48 hrs by SRB protein assay
RXF 393 = experiment: Growth inhibition of human RXF393 cells after 48 hrs by SRB protein assay; settings: RXF 393, 48 h
PC-3 = experiment: Growth inhibition of human PC3 cells after 48 hrs by SRB protein assay; settings: PC-3, 48 h
BT-549 = experiment: Growth inhibition of human BT549 cells after 48 hrs by SRB protein assay; settings: BT-549, 48 h
HOP-92 = experiment: Growth inhibition of human HOP92 cells after 48 hrs by SRB protein assay; settings: HOP-92, 48 h
[5] = read-out: LC50 (the source's name)

Clc1nc(Cl)c2ncn(Cc3ccc(Cn4cnc5c(Cl)nc(Cl)nc54)cc3)c2n1
LC50 (M14): 52.5 µM
TGI (M14): 27.5 µM
GI50 (SK-MEL-5): 10.7 µM
LC50 (SK-MEL-5): 47.9 µM
TGI (SK-MEL-5): 22.9 µM
GI50 (UACC-62): 13.8 µM
LC50 (concentration killing 50% of cells) (UACC-62): 51.3 µM
TGI (UACC-62): 26.9 µM
GI50 (CCRF-CEM): 10.2 µM
TGI (CCRF-CEM): 22.9 µM
CC50 (CCRF-CEM; [5]): 51.3 µM
GI50 (K562): 2.88 µM
TGI (K562): 16.6 µM
CC50 (K562; [5]): 40.7 µM
GI50 (MOLT-4): 7.94 µM
LC50 (MOLT-4): 45.7 µM
TGI (MOLT-4): 20.9 µM
GI50 (RPMI-8226): 6.45 µM
TGI (RPMI-8226): 25.1 µM
CC50 (RPMI-8226; [5]): 75.9 µM
LC50 (A549): 50.1 µM
TGI (A549): 25.1 µM
GI50 [1]: 17 µM
LC50 [1]: 93.3 µM
TGI [1]: 39.8 µM
LC50 (HOP-62): 51.3 µM
TGI (HOP-62): 26.3 µM
GI50 [2]: 13.8 µM
LC50 [2]: 51.3 µM
TGI [2]: 26.9 µM
GI50 (NCI-H460): 14.1 µM
TGI (NCI-H460): 26.9 µM
CC50 (NCI-H460; [5]): 52.5 µM
GI50 [3]: 12.3 µM
LC50 [3]: 52.5 µM
TGI [3]: 25.7 µM
LC50 (COLO 205): 41.7 µM
TGI (COLO 205): 17.4 µM
LC50 (HCC 2998): 50.1 µM
TGI (HCC 2998): 25.1 µM
GI50 (HCT-15): 13.2 µM
LC50 (HCT-15): 51.3 µM
TGI (HCT-15): 25.7 µM
GI50 (SF-268): 15.5 µM
LC50 (SF-268): > 100 µM
TGI (SF-268): 38.9 µM
TGI (SNB-19): 21.9 µM
CC50 (SNB-19; [5]): 46.8 µM
GI50 [4]: 2.88 µM
LC50 [4]: 41.7 µM
TGI [4]: 17.4 µM
TGI (A498): 22.9 µM
CC50 (A498; [5]): 47.9 µM
GI50 (ACHN): 12.6 µM
LC50 (ACHN): 50.1 µM
TGI (ACHN): 25.1 µM
GI50 (RXF 393): < 0.01 µM
CC50 (RXF 393; [5]): 20.9 µM
GI50 (PC-3): 12.9 µM
TGI (PC-3): 25.7 µM
CC50 (PC-3; [5]): 50.1 µM
GI50 (BT-549): < 0.01 µM
TGI (BT-549): 19.1 µM
CC50 (BT-549; [5]): 43.6 µM
LC50 (HOP-92): 57.5 µM
TGI (HOP-92): 26.3 µM
